# Test results published in US6462038B1, “Androgen receptor modulator compounds and methods” (Ligand Pharmaceuticals, Inc., priority 1999, dated 2002).
# How the values were obtained:
# Assay type in all cases: cell-based
# [1] = target: T1, ER (Homo sapiens, UniProt P03372); experiment: co-transfection assay, ER agonist
# T1 construct: expressed in transfected cells; host or cells: CV-1 cells
# Experimental: (§1) CV-1 cells (African green monkey kidney fibroblasts) were cultured in the presence of Dulbecco's Modified Eagle Medium (DMEM) supplemented with 10% charcoal resin-stripped fetal bovine serum (CH-FBS) then transferred to 96-well microtiter plates one day prior to transfection.
# (§2) Three to four replicates were used for each sample.
# (§3) After 40 hours, the cells were washed with PBS, lysed with a Triton X-100-based buffer and assayed for LUC and β-Gal activities using a luminometer or spectrophotometer, respectively. For each replicate, the normalized response (NR) was calculated as: […]
# [2] = target: T2, MR (Homo sapiens, UniProt P08235); experiment: co-transfection assay, MR antagonist
# T2 construct: expressed in transfected cells; host or cells: CV-1 cells
# T2 sequence (P08235 1-984): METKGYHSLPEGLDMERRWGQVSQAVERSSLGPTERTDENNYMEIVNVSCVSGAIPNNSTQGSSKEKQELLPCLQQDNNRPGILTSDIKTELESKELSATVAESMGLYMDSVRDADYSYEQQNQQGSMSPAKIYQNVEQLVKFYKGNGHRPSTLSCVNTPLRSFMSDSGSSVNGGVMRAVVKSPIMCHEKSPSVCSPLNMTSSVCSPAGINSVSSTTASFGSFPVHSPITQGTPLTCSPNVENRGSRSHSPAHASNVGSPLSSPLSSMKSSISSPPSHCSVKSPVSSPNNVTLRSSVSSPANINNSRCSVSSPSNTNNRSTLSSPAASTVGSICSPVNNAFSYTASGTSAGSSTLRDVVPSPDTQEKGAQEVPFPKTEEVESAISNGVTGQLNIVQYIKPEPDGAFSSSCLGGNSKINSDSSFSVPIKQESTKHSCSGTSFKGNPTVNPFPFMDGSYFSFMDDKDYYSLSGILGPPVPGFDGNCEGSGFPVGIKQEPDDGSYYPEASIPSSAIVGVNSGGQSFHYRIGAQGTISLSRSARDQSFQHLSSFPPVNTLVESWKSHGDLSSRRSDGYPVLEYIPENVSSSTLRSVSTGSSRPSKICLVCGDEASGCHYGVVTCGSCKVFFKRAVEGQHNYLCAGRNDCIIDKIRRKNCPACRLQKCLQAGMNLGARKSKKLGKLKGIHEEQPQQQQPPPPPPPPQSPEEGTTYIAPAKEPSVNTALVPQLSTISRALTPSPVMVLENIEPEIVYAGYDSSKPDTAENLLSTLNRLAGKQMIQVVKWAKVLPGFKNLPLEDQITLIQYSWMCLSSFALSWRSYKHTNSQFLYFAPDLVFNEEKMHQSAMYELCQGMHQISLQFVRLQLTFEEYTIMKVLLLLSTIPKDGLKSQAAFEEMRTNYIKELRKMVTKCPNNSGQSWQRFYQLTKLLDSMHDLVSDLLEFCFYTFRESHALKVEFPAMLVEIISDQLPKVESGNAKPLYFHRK
# Experimental: as §1, §2, §3
# [3] = target: T3, PR (Homo sapiens, UniProt P06401); experiment: co-transfection assay, PR agonist
# T3 construct: expressed in transfected cells; host or cells: CV-1 cells
# T3 sequence (P06401 1-933): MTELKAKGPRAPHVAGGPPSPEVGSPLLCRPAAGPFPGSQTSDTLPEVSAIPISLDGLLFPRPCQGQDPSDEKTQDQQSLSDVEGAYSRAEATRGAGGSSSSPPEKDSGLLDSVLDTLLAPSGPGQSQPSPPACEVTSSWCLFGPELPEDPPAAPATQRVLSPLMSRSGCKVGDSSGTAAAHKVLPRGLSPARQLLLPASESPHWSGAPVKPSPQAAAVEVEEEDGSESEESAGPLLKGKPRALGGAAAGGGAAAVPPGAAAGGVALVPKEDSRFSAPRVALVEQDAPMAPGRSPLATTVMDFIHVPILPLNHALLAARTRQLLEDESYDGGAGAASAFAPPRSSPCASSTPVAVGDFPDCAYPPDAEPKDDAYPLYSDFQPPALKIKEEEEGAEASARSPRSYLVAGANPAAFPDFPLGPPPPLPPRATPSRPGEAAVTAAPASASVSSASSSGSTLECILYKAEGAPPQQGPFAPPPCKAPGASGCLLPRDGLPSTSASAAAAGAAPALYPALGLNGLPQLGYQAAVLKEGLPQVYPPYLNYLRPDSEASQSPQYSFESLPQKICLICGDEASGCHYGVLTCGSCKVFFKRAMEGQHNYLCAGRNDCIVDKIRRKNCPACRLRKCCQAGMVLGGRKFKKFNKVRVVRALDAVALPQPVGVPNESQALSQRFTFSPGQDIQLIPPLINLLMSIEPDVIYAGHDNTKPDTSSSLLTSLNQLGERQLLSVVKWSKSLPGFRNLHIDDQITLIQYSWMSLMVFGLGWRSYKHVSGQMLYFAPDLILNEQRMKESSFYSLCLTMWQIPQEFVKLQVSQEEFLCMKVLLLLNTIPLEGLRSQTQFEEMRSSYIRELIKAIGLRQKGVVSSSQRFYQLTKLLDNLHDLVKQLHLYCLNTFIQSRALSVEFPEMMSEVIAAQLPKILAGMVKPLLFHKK
# Experimental: as §1, §2, §3
# T1 sequence (P03372 whole entry): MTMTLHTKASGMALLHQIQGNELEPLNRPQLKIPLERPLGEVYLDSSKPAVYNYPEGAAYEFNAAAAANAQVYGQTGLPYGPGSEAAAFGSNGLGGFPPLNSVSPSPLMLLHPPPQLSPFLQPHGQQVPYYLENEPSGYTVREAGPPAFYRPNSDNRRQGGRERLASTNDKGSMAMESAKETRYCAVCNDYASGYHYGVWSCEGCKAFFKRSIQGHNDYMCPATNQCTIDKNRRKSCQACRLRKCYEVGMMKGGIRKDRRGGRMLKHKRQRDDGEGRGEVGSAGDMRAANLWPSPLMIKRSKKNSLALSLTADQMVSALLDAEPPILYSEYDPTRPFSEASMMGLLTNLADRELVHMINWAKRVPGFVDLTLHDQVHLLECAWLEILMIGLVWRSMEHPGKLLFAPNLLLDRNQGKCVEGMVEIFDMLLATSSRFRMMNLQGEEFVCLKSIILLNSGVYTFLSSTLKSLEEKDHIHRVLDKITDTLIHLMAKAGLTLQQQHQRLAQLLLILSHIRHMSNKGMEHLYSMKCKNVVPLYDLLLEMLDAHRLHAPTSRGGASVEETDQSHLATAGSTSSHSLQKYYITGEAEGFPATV
SMILES,EC50 [1],IC50 [2],EC50 [3]
"CN1CCOc2cc3c(cc21)c(C(F)(F)F)cc(=O)n3C [Compound 102, 1,2,3,6-Tetrahydro-1,6-dimethyl-9-(trifluoromethyl)-7H-[1,4]oxazino[3,2-g]quinolin-7-one]",> 10 µM,> 10 µM,> 10 µM
"CCN1CCOc2cc3c(cc21)c(C(F)(F)F)cc(=O)n3C [Compound 104, 1-Ethyl-1,2,3,6-tetrahydro-6-methyl-9-(trifluoromethyl)-7H-[1,4]oxazino[3,2-g]quinolin-7-one]",> 10 µM,1.8 µM,> 10 µM
"O=c1cc(C(F)(F)F)c2cc3c(cc2[nH]1)OCCN3CC(F)(F)F [Compound 105, 1,2,3,6-Tetrahydro-1-(2,2,2-trifluoroethyl)-9-(trifluoromethyl)-7H-[1,4]oxazino[3,2-g]quinolin-7-one]",> 10 µM,> 10 µM,> 10 µM
"O=C1COc2cc3[nH]c(=O)cc(C(F)(F)F)c3cc2N1CC(F)(F)F [Compound 137, 1,6-Dihydro-1-(2,2,2-trifluoroethyl)-9-(trifluoromethyl)-3H-[1,4]oxazino[3,2-g]-quinolin-2,7-dione]",> 10 µM,> 10 µM,> 10 µM
